# Source: ChEMBL document CHEMBL1201862, “PubChem BioAssay data set” (2004)
# Calls of active or inactive are those of the source.
# Assays:
# [1] = DRD fibroblast viability loss – cell-based, non-viral oncogenic, luminescence, dose response (AID 1934); type: functional; details: Homo sapiens
# [2] = viability of PTEN-deleted HCT116 cells – cell-based, HCT116 PTEN knockout, dose response (AID 1047); type: functional;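 further: HCT116 colon tumor cells with PTEN knocked out; cells exposed to compound for 60 hours before readout; potency for loss of cell viability measured by luminescence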
# [3] = Luminescence Cell-Based Dose Response HTS to Identify Inhibitors of 5'UTR Stem-Loop Driven Prion Protein mRNA Translation in H4 Neuroglioblastoma Cells. [Related pubchem assays: 1827 (Project Summary), 1813 (Primary HTS)]; type: functional
# [4] = luciferase reporter signal suppression in cells – H4 neuroglioma cells, luminescence, dose response (AID 1990); type: functional, cell-based
# [5] = Cytotoxicity screening for potential Inhibitors of Bacterial Capsule Biogenesis. [Related pubchem assays (depositor defined):AID488970]; type: functional
# BJ [6] = assay: BJ-TERT-LT-ST fibroblast viability loss – cell-based, RAS-independent, luminescence, dose response (AID 1935); type: functional; details: Homo sapiens;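 further: BJ fibroblasts immortalized with TERT plus LT and ST oncogenes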
# Galanin receptor type 2 = Galanin receptor type 2 (Homo sapiens, UniProt O43603); assay: Dose Response cell-based high-throughput screening assay to identify agonists of galanin receptor 2 (GALR2). [Related pubchem assays: 864 ]; type: functional
# Melanocortin receptor 4 = Melanocortin receptor 4 (Homo sapiens, UniProt P32245); type: functional, cell-based;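 further: Cell-based assay with luminescence read-out, confirmatory dose-response testing for agonist activity of biased ligands at MC4R; human U2OS cells with tagged receptor and beta-arrestin; potency of agonists that increase receptor coupling to beta-arrestin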
# BJ [7] = assay: BJ-TERT fibroblast viability loss – cell-based, RAS-independent, luminescence, dose response (AID 1933); type: functional; details: Homo sapiens
# BJ [8] = assay: cells; type: functional, cell-based; details: Homo sapiens
# [9] = viability of HCT116 lacking mutant beta-catenin – cell-based, human colon tumor, dose response (AID 1045); type: functional;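 further: HCT116 colon tumor cells with beta catenin knocked out; cells exposed to compound for 60 hours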
# [10] = alpha-synuclein stem-loop luciferase translation blockers – H4 neuroglioma cells, luminescence, confirmation (AID 1988); type: functional, cell-based
# BJ [11] = assay: growth inhibition of engineered Ras-driven BJ cells – cell-based, alamar blue fluorescence, cherrypicked samples, dose response (AID 2631); type: functional; details: Homo sapiens;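 further: confirmatory dose-response assay in RAS-dependent BJ fibroblasts engineered with TERT, LT and ST, with cytotoxicity read by fluorescence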
# Estrogen receptor beta [12] = target: T1, Estrogen receptor beta (Homo sapiens, UniProt Q92731); assay: blockers of SRC-3 recruitment to ERβ – biochemical, ELISA, streptavidin-HRP readout, orthogonal assay, confirmation (AID 1060)
# [13] = target: T2, Zinc finger protein mex-5 (Caenorhabditis elegans, UniProt Q9XUB2); assay: potency of MEX-5 RNA-binding blockers – biochemical, C. elegans, fluorescence polarization, dose response (AID 1960)
# T2 sequence (Q9XUB2 whole entry): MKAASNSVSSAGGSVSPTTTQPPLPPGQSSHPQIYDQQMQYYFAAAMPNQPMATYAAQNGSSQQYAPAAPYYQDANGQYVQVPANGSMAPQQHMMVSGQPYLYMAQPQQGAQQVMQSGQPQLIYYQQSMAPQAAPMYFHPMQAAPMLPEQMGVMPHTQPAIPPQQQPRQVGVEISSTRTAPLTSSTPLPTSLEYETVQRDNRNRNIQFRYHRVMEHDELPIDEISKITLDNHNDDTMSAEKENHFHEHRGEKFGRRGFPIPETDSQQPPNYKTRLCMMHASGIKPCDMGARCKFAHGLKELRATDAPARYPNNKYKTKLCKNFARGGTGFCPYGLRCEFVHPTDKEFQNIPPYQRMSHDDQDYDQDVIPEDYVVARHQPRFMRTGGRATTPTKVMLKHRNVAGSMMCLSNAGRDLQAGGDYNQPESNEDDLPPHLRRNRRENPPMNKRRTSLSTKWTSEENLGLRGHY
# [14] = target: Dual specificity tyrosine-phosphorylation-regulated kinase 1A (Rattus norvegicus, UniProt Q63470); type: biochemical, Homo sapiens
# [15] = loss of viability in HepG2 cells – cell-based, CellTiter-Glo, cherry-picked, cytotoxicity control for Shn3 inhibitor project, dose response (AID 624134); type: functional
# [16] = general mammalian cell viability loss – inhibitor set, cherry-pick, set 2, cytotoxicity control for miR-122 modulator project, dose response (AID 720697); type: functional, cell-based
# [17] = activation of miR-122 Renilla sensor silencing – cell-based, Huh7 psiCHECK-miR122, Renilla luciferase, cherry-picked, dose response (AID 651956); type: functional;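 further: huh7 hepatoma cells stably carrying a psiCHECK-2 miR-122 sensor plasmid; renilla luciferase signal reporting endogenous miR-122 activity after 48 h compound exposure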
# [18] = target: T3, RNA-binding protein pos-1 (Caenorhabditis elegans, UniProt G5EF15); assay: disruptors of C. elegans POS-1 RNA interaction – biochemical, fluorescence polarization, dose response (AID 1964);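 further: purified POS-1 fused to maltose binding protein made in E. coli; potency of compounds blocking POS-1 binding to fluorescent RNA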
# T3 sequence (G5EF15 whole entry): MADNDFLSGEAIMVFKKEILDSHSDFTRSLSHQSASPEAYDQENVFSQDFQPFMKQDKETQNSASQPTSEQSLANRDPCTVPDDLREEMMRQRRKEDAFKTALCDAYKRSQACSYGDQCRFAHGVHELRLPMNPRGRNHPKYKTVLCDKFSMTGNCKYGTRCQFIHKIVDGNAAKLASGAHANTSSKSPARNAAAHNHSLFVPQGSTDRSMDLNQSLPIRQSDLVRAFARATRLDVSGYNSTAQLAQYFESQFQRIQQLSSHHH
# [19] = reduction of Shn3 3'UTR-driven luciferase in osteoblasts – cell-based, Clone20 osteoblasts, firefly luciferase, cherry-picked, dose response (AID 624132); type: functional;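 further: firefly luciferase luminescence from reporter carrying the Shn3 3'UTR in osteoblasts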
# [20] = target: Cyclin-dependent kinase 5/CDK5 activator 1 (Homo sapiens, UniProt Q00535); assay: blockade of human CDK5 activity – biochemical, cherry-picked samples, set 2, dose response (AID 504545)
# Estrogen receptor beta [21] = target: T1, Estrogen receptor beta
# [22] = target: FAD-linked sulfhydryl oxidase ALR (Homo sapiens, UniProt P55789); assay: ALR-catalysed DTT oxidation blockers – biochemical, H2O2 detection, luminescence, cherry-pick, dose response (AID 493248)
# Large T antigen = Large T antigen (Simian virus 40, UniProt P03070); type: functional, Betapolyomavirus macacae;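 further: Confirmatory-stage PubChem screen for compounds that inhibit SV40 T antigen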
# [23] = non-specific 3'UTR reporter inhibition in Clone20-Shn3RL – cell-based, Renilla luciferase, cherry-picked, counter-screen for Shn3 inhibitor project, dose response (AID 624133); type: functional
# [24] = target: T4, Rac GTPase-activating protein 1 (Homo sapiens, UniProt Q9H0H5); assay: blockers of MgcRacGAP-driven Rac1 GTP hydrolysis – biochemical, ADP Hunter fluorescence, primary and confirmatory, confirmation (AID 624330); type: functional
# T4 sequence (Q9H0H5 whole entry): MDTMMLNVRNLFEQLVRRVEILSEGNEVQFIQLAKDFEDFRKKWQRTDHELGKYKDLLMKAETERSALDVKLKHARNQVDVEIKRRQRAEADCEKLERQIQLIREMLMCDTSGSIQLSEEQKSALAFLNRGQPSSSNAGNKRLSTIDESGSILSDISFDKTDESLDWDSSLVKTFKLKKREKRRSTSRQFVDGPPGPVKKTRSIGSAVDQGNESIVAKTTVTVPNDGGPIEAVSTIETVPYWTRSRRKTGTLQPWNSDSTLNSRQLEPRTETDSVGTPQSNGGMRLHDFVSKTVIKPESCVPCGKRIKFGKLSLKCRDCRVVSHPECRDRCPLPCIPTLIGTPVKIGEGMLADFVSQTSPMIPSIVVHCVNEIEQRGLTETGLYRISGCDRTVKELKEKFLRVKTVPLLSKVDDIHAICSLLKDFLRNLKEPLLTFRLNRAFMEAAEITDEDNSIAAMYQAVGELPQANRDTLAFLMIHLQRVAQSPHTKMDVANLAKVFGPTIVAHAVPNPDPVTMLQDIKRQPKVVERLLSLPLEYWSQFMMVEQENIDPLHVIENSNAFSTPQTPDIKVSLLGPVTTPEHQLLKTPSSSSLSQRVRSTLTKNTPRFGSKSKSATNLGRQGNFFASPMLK
# [25] = target: G-protein coupled receptor 35 (Homo sapiens, UniProt Q9HC97); assay: inhibition of zaprinast-stimulated GPR35 beta-arrestin translocation – imaging, U2OS, beta-arrestin-GFP, zaprinast agonist, primary screen (AID 2058); type: functional;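 further: antagonist potency meaning inhibition of agonist-induced arrestin redistribution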
# Trypsin = Trypsin (Sus scrofa, UniProt P00761); assay: trypsin protease activity blockade – biochemical, quenched peptide fluorescence, cherry-pick, selectivity assay for Rce1 protease inhibitor project, dose response (AID 488789)
# CAAX prenyl protease 2 = CAAX prenyl protease 2 (Saccharomyces cerevisiae S288c, UniProt Q03530); type: biochemical
# [26] = target: T5, Intestinal-type alkaline phosphatase (Homo sapiens, UniProt P09923); assay: human intestinal alkaline phosphatase activators, dose response, biochemical, luminescence, uHTS hits (AID 463120); type: functional
# [27] = target: Intestinal-type alkaline phosphatase (Mus musculus, UniProt P24822); assay: PubChem AID 488874; type: functional
# [28] = target: T6, Alkaline phosphatase, tissue-nonspecific isozyme (Homo sapiens, UniProt P05186); assay: activation of tissue-nonspecific alkaline phosphatase – biochemical, TNAP isozyme, human IAP uHTS hits, selectivity assay for human IAP activator project, dose response (AID 488886); type: functional;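 further: potency of compounds raising TNAP activity as a selectivity check on IAP activators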
# T6 sequence (P05186 whole entry): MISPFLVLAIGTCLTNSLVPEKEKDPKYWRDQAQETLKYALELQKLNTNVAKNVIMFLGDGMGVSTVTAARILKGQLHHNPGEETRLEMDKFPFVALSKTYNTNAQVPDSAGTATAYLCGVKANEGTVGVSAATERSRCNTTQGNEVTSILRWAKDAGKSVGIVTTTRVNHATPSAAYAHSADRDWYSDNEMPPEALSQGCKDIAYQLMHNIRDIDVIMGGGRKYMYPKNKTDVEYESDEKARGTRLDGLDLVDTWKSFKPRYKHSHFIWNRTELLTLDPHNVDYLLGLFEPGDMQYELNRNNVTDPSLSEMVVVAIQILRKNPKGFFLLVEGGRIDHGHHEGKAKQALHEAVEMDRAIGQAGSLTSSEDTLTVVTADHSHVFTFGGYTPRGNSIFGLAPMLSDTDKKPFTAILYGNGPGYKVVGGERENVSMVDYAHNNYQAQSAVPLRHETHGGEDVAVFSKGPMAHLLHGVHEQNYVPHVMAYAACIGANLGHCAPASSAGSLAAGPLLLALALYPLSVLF
# [29] = NIH-3T3 fibroblast cytotoxicity, dose response, cytotoxicity control, cell-based, fluorescence, Alamar Blue, secondary assay (AID 2327); type: functional;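 further: NIH-3T3 mouse fibroblasts cultured with fluconazole at 8 µg/mL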
# [30] = target: T5, Intestinal-type alkaline phosphatase; assay: activation of human intestinal alkaline phosphatase – biochemical, luminescent, uHTS hits, set 2, dose response (AID 488817); type: functional;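 further: potency of activators that raise enzyme activity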
# [31] = fluconazole-exposed Candida albicans growth modulators – fluorescence, retest, confirmation (AID 2467); type: functional, cell-based
# [32] = HGIII-sPLA2 enzyme inhibition potency – biochemical, QFRET, IC50, dose response (AID 743457);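 further: green fluorescence rise as the enzyme cleaves BODIPY PC-A2 in liposomes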
# T1 sequence (Q92731 whole entry): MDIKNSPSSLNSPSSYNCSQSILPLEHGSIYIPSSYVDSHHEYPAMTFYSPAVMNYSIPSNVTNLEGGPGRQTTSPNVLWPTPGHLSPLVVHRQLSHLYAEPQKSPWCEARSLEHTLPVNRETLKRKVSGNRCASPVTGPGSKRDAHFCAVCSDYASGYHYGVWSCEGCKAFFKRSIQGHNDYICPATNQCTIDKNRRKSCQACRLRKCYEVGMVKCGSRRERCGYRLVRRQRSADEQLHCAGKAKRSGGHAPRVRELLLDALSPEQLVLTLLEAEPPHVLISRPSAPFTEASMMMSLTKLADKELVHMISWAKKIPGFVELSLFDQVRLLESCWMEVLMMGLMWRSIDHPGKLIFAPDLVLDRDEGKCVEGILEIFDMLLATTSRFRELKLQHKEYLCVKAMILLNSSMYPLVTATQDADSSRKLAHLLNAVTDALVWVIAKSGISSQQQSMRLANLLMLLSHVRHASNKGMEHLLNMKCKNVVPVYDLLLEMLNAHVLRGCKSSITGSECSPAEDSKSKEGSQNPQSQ
# T5 sequence (P09923 whole entry): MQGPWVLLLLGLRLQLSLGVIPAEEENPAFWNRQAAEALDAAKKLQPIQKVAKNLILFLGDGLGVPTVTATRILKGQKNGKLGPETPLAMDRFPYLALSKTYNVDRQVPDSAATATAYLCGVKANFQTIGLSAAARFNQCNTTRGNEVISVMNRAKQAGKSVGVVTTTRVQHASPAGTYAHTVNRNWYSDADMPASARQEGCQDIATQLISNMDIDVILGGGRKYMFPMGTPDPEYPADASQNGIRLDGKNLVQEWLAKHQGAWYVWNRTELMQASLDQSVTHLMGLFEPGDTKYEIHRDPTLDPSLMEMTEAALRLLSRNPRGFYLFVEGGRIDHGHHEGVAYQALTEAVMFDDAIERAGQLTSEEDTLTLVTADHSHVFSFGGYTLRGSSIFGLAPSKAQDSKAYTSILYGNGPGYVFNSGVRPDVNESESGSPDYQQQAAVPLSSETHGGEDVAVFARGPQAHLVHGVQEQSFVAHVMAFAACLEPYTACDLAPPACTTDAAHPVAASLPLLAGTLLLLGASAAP
# Intestinal-type alkaline phosphatase (Mus musculus, UniProt P24822), sequence (P24822 whole entry): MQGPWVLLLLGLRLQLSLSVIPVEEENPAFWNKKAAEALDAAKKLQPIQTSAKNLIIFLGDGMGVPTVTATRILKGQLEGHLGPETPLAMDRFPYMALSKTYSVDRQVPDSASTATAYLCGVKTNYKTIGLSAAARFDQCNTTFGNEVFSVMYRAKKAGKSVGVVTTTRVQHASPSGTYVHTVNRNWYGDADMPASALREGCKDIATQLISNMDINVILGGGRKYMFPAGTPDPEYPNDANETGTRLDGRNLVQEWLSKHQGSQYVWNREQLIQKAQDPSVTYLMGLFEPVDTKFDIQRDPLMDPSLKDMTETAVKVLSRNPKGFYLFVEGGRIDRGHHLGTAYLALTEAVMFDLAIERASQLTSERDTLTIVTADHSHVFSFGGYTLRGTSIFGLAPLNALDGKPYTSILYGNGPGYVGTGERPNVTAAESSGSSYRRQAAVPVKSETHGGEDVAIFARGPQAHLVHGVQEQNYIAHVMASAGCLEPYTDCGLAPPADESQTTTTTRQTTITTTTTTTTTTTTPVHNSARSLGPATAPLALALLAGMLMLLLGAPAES
# Cyclin-dependent kinase 5/CDK5 activator 1, sequence (Q00535 whole entry): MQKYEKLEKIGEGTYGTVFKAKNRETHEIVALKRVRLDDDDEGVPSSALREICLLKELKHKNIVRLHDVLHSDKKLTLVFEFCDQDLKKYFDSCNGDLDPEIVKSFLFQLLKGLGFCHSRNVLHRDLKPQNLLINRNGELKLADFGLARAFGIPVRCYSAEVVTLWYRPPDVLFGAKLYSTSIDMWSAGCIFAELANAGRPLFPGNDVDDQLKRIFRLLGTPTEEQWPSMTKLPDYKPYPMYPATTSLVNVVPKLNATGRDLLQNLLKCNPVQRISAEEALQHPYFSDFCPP
# Cyclin-dependent kinase 5/CDK5 activator 1, sequence (Q15078 whole entry, further chain): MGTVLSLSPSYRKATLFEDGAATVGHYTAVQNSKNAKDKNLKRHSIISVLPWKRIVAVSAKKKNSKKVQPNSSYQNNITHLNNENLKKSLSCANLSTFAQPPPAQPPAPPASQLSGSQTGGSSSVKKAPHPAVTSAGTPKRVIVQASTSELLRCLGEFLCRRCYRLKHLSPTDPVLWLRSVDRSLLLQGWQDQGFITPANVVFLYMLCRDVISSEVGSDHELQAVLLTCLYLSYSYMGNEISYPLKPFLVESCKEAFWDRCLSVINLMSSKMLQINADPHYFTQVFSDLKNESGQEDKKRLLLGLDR
# G-protein coupled receptor 35, sequence (Q9HC97 whole entry): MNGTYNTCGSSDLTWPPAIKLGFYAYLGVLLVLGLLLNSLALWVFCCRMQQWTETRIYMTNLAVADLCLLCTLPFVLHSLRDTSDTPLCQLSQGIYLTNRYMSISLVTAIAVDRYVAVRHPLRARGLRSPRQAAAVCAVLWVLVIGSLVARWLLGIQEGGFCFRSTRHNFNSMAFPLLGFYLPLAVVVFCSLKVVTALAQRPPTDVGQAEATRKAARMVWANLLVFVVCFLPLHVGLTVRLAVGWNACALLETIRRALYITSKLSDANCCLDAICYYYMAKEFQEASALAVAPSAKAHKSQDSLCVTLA
# CAAX prenyl protease 2, sequence (Q03530 whole entry): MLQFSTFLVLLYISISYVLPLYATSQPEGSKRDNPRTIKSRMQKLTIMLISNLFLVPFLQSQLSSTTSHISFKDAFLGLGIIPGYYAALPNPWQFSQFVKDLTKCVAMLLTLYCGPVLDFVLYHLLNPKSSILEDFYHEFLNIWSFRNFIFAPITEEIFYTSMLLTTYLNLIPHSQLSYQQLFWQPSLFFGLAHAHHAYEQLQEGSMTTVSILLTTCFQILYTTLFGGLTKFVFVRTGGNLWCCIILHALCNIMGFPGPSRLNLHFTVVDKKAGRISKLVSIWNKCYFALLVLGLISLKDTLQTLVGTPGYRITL
# Melanocortin receptor 4, sequence (P32245 whole entry): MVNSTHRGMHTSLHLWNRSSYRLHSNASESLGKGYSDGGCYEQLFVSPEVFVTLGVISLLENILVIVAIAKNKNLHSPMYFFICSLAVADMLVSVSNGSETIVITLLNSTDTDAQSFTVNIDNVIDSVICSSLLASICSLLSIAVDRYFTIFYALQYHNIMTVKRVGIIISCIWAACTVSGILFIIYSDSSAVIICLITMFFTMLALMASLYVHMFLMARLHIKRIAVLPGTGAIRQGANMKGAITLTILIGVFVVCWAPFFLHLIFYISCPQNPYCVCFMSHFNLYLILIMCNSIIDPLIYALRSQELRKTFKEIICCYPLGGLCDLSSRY
# Galanin receptor type 2, sequence (O43603 whole entry): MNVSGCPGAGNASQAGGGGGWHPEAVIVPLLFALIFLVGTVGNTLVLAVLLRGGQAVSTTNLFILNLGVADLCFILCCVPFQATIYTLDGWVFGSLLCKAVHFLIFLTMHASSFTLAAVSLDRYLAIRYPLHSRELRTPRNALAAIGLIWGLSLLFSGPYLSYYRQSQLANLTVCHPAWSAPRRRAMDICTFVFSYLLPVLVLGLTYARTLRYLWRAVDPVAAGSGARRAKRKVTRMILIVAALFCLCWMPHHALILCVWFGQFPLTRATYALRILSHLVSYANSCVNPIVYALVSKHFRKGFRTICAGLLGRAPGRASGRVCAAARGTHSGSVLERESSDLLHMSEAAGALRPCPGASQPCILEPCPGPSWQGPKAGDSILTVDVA
# Large T antigen, sequence (P03070 whole entry): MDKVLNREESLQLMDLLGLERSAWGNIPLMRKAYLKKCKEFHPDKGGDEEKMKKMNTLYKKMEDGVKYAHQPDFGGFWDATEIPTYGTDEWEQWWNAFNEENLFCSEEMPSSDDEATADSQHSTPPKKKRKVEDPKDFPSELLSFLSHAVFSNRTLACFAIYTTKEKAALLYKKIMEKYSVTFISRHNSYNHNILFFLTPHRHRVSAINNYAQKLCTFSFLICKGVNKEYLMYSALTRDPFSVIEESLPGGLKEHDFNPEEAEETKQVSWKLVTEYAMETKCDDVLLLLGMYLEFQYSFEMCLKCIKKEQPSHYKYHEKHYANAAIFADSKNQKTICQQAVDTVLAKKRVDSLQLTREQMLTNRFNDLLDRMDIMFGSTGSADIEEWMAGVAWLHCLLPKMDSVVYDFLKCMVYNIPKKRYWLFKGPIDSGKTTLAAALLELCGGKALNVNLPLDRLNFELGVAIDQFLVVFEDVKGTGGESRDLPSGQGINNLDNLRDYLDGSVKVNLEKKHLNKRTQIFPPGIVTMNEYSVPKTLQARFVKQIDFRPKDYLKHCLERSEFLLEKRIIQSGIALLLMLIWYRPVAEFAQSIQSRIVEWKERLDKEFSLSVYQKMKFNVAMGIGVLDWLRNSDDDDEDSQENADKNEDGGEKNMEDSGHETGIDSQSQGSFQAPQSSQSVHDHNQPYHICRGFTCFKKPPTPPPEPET
# FAD-linked sulfhydryl oxidase ALR, sequence (P55789 whole entry): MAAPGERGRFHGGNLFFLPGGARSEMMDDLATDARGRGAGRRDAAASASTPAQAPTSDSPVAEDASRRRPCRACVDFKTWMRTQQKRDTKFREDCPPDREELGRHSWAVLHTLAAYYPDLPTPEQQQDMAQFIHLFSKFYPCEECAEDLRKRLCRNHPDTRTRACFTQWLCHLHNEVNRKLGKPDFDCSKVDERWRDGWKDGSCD
# Trypsin, sequence (P00761 whole entry): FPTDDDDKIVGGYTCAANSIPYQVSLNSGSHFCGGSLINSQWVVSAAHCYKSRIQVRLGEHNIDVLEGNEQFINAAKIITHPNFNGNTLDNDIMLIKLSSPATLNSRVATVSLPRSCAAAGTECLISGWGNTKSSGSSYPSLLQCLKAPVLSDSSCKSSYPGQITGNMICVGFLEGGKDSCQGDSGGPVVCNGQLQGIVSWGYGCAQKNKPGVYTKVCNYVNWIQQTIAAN
smiles,measurement,setting,value
CCCOc1ccc(C(=O)C(CCC(CNCC)C(=O)c2ccc(OCCC)cc2)CNCC)cc1 (stereo unspecified),EC50,[1],3.31 µM (active)
same,EC50,[2],1.76 µM (active)
same,EC50,[3],8.92 µM (active)
same,EC50,[4],> 120 µM (not active)
same,CC50,[5],3.18 µM (active)
same,EC50,BJ [6],2.72 µM (inconclusive)
same,EC50,Galanin receptor type 2,> 55.7 µM (not active)
same,EC50,Melanocortin receptor 4,> 89.2 µM (inactive)
same,EC50,BJ [7],2.57 µM (inconclusive)
same,EC50,BJ [8],4.61 µM (active)
same,EC50,[9],1.88 µM (active)
same,EC50,[10],6.08 µM (active)
same,EC50,BJ [11],0.513 µM (active)
Oc1ccc(-c2nc(-c3ccc(O)c(O)c3)cs2)cc1,EC50,[1],2.67 µM (inconclusive)
same,IC50,Estrogen receptor beta [12],90.7 µM (not active)
same,EC50,[13],20.8 µM (inconclusive)
same,AC50,[14],3.19 µM (active)
same,AC50,[15],> 70 µM (inactive)
same,AC50,[16],1.31 µM (active)
same,AC50,[17],29 µM (active)
same,EC50,BJ [6],> 150 µM (not active)
same,EC50,[18],33.5 µM (active)
same,EC50,BJ [7],2.89 µM (inconclusive)
same,EC50,BJ [8],41.4 µM (active)
same,AC50,[19],5.07 µM (active)
same,AC50,[20],23.5 µM (active)
same,IC50,Estrogen receptor beta [21],4.96 µM (active)
same,AC50,[22],1.22 µM (active)
same,IC50,Large T antigen,36.1 µM (active)
same,AC50,[23],5.09 µM (active)
Nc1[nH]c2cc([N+](=O)[O-])ccc2c1-c1ccccn1,IC50,[24],82.9 µM (active)
same,IC50,[25],0.787 µM (active)
COc1ccc(-c2cc3nc(C)c(CCC(=O)N4CCN(c5ccccn5)CC4)c(C)n3n2)c(OC)c1,AC50,Trypsin,7.2 µM (active)
same,AC50,CAAX prenyl protease 2,> 100 µM (inactive)
O=C(NNC(=S)NC1CCCCC1)c1ccccc1Br,EC50,[26],12.1 µM (active)
same,IC50,[27],50.3 µM (active)
same,EC50,[28],16.1 µM (active)
same,EC50,[29],21.7 µM (inconclusive)
same,EC50,[30],14.9 µM (active)
same,EC50,[31],2.94 µM (active)
same,IC50,[32],> 122 µM (inactive)
